Measurements as given in US20230339835A1, “2,3,5-TRIMETHYL-6-NONYLCYCLOHEXA-2,5-DIENE-1,4-DIONE FOR SUPPRESSING AND TREATING ALPHA-SYNUCLEINOPATHIES, TAUOPATHIES, AND OTHER DISORDERS” (PTC THERAPEUTICS, INC., priority 2018, published 2023).

How the values were obtained:
[1] = system: N27 rat dopaminergic cells overexpressing a truncated human αSynuclein-GFP fusion protein; test: Inhibition of RSL3-induced αSynuclein aggregation in N27 cells; format: cell-based; details: 60 nM RSL3, 70 nM compound, 24 hr, vs RSL3 only (Dunnett's test)
Experimental: N27 rat dopaminergic cells (purchased from EMD Millipore, SCC048) were transformed to stably overexpress truncated α-Synuclein fused with green fluorescent protein (GFP) with a plasmid construct obtained from Origene (RG221446). Cells were maintained in selection media which consisted of RPMI 1640 media supplemented with 10% (v/v) fetal bovine serum (Millipore, ES-009-B), 1% (v/v) Pencillin-Streptomycin (Gibco, 15140-122), 1% (v/v) L-Glutamine (Gibco, 25030-081) and 500 μg/mL of G418 (Gibco, 10131-027).
N27 rat dopaminergic cells overexpressing a truncated (112 amino acid) human αSynuclein-GFP fusion protein, as described above, were maintained in normal culture conditions as described above. The day before the experiment, cells were plated in 96 well optical bottom, black walled plates at 3,000 cells/well, and maintained at 37° C. for 24 hr. The experiment was initiated by co-treating cells with (1S,3R)-methyl 2-(2-chloroacetyl)-1-(4-(methoxycarbonyl)phenyl)-2,3,4,9-tetrahydro-1H-pyrido[3,4-b]indole-3-carboxylate (1S,3R-RSL3, described by Yang et al., Cell 156:317-331 (2014)) (60 nM) and 70 nM compounds (2,3,5-trimethyl-6-nonylcyclohexa-2,5-diene-1,4-dione (C9), 2,3,5-trimethyl-6-octylcyclohexa-2,5-diene-1,4-dione (C8), or 2,3,5-trimethyl-6-heptylcyclohexa-2,5-diene-1,4-dione (C7)) using a D300e compound printer (Tecan), and placed back in the incubator at 37° C. for 24 hr. Cells were fixed with 4% paraformaldehyde for 15 minutes at room temperature, washed 3 times with Dulbecco's phosphate-buffered saline (DPBS) buffer, and then incubated at room temperature for 48 hr with 1% Triton-X 100 solution (in DPBS) to enable selective labeling of aggregated αSynuclein. Cells were then washed and standard immunocytochemistry (ICC) methods were employed to label total αSynuclein (mouse anti-αSynuclein, 1:250, BD Biosciences). Cells were incubated with primary antibody overnight at 4° C. and then washed with DPBS 3 times the following day. Cells were then incubated at room temperature with a fluorescently conjugated secondary antibody (goat anti-mouse Alexa 647, Invitrogen) for 2 hr at room temperature. 10 nM Hoechst was also added to label nuclei, and cells were imaged on a high-content imaging platform (ThermoFisher, HSC Cellomics Arrayscan) to quantify total aggregated αSynuclein (see FIG. 3A).
Statistical analysis of samples was performed via ordinary one-way ANOVA analysis with Dunnett's multiple comparisons test, comparing RSL3 only-treated vs. RSL3 plus compound-treated cells.

[2] = biological target: T1, pre-formed fibrils (PFFs) of human wild-type Tau K18 fragment (Homo sapiens, UniProt P10636); test: Cell-free Tau K18 WT pre-formed fibril disaggregation assay (Thioflavin T); format: biochemical; details: 10 μM Tau PFFs, 30 μM compound, 94 hr, vs vehicle (Dunnett's test)
T1 construct: human recombinant Tau K18 WT fragment were generated by incubating the Tau K18 monomer (Bio-Techne®); purchased Bio-Techne
Experimental: Summary: Compounds 2,3,5-trimethyl-6-nonylcyclohexa-2,5-diene-1,4-dione (C9), 2,3,5-trimethyl-6-octylcyclohexa-2,5-diene-1,4-dione (C8), and 2,3,5-trimethyl-6-heptylcyclohexa-2,5-diene-1,4-dione (C7) were tested for their ability to disaggregate pre-formed fibrils (PFFs) of human wild-type Tau K18 fragment, as measured by the decrease in fluorescence intensity of the aggregate-binding fluorophore, Thioflavin T, over time.
Experimental Methods: Pre-formed fibrils (PFFs) of the human recombinant Tau K18 WT fragment were generated by incubating the Tau K18 monomer (Bio-Techne®) with sodium heparin in a 1:1 ratio in presence of excess (50×) tris(2-carboxyethyl)phosphine (TCEP) as the reducing agent in Dulbecco's phosphate-buffered saline (DPBS) buffer (pH 7.4). The mixture was incubated for 4 days at 37° C. without agitation to yield PFFs in 100 μM final concentration.
Cell-free Tau disaggregation assays were set up with 10 μM of Tau PFFs in the presence of 30 μM of compound (from 10 mM stocks in DMSO) or in 0.3% (v/v) DMSO as vehicle. All solutions were prepared in DPBS buffer (pH 7.4) with 0.03% (v/v) NaN3 and 5 μM Thioflavin T (ThT), prepared as a master mix before addition of the protein or compounds. A protein master mix was first prepared the day before the assay to pre-equilibrate the Tau PFFs at 10 μM at ambient temperature and atmosphere. The next day, the pre-mixed protein solution was separated into 4 tubes (1 per condition). […]
(§1) Tau PFFs solution+/−compound and background samples were then loaded into wells of an optically transparent 96-well plate with black walls, which was sealed with a LightCycler® 480 seal (Roche Life Science), incubated at 37° C. for 15 minutes to equilibrate and the data collection was initiated. A Tecan M1000 spectrometer was used to collect data points on ThT fluorescence (ex/em 450/490 nm) every 30 minutes without agitation.
Data Analysis and Results: The maximum fluorescence intensity unit (FIU) value of the vehicle-treated Tau samples was set to 100%, to which all other FIU values were normalized relatively. […]

[3] = biological target: T2, recombinant human αSynuclein (Homo sapiens, UniProt P37840); test: Cell-free αSynuclein aggregation assay (Thioflavin T); format: biochemical; details: 200 μM αSynuclein, 100 μM compound, t=24 hours, one-way ANOVA with Tukey's test
T2 construct: purchased Proteos, Inc
Experimental: Summary: The compound 2,3,5-trimethyl-6-nonylcyclohexa-2,5-diene-1,4-dione (“C9”), and its C8 (2,3,5-trimethyl-6-octylcyclohexa-2,5-diene-1,4-dione) and C7 (2,3,5-trimethyl-6-heptylcyclohexa-2,5-diene-1,4-dione) analogs were tested for their function as inhibitors of αSynuclein aggregation, as measured by the presence and extent of a lag phase in the kinetics of protein aggregation. Changes in the fluorescence intensity by the aggregate-binding fluorophore, Thioflavin T, were followed to report on the protein aggregation as a function of time.
Experimental Methods: Cell-free αSynuclein aggregation assays were set up with 200 μM of recombinant human αSynuclein (Proteos, Inc.) in the presence of 100 μM of compound (from 10 mM stock solutions in DMSO) or in 1% (v/v) DMSO as vehicle. All solutions were prepared in Dulbecco's phosphate-buffered saline (DPBS) buffer (pH 7.4) with 0.03% (v/v) NaN3 and 5 μM Thioflavin T (ThT), prepared as a master mix before addition of the protein or compounds. A protein master mix was then prepared and separated into 4 tubes (1 per condition). […]
as §1, with “Protein” for “Tau PFFs”, “walls (Corning Costar),” for “walls,”, “equilibrate, after which” for “equilibrate and”, “started.” for “initiated.”, “minutes. The plate was agitated by shaking in between fluorescence reads.” for “minutes without agitation.”
Data Analysis and Results: Fluorescence intensity data were collected on all the samples over time. The endpoint fluorescence intensity unit (FIU) value of the mean of vehicle-treated αSyn samples was set to 100%, and all other FIU values were normalized relative to it (see FIG. 1A). The end results were plotted as normalized ThT fluorescence (%) with respect to time.
Normalized ThT fluorescence values (% FIU) at t=24 hours were used to compare samples (see FIG. 1B). […]

[4] = system: C57Bl/6 mice, MPTP-induced model of PD; test: Mouse MPTP model of Parkinson's Disease, open field locomotor assay; format: in vivo; details: MPTP 60 mg/kg (3 x 20 mg/kg at two-hour intervals)
From the text: Animals. Species: Mouse. Strain: C57Bl/6. Source of Animals: Charles River. Age: 6 to 7 weeks. Sex: Male. Randomization: Animals were assigned randomly to treatment groups. Blinding of Study: Experimenters were blinded to the experimental treatments
Housing and Feeding. Acclimation/Conditioning: Not less than three days. Housing: Mice were housed on a 12 hr light/dark cycle (lights on 6:00 AM) No more than 4 mice per cage. Ventilated cage rack system. Diet: Standard rodent chow and water ad libitum.
Design Parameters. Route(s) of administration: PO. Dose Volume: PO: 5 mL/kg. Formulation(s): formulated by Melior according to directions from BioElectron. Vehicle-sesame oil (Spectrum Chemical, NF Catalog #SE130, CAS #8008-74-0). Dose Levels: 300 mg/kg. Dose Frequency: QD starting Day −2 (MPTP=Day 0) and until Day 7. Study duration: 11 days. Pretreatment time (up to 2 hrs): For Day 0 (MPTP Day): 30 min, Pretreatment time for Open Field Assay/Locomotor Activity (OFA/LMA) assay: 1 hr. Number of Groups: 3. Number of animals per group: 10. Total number of animals: 30 (in the study), 42 animals total (To ensure a proper power analysis of at least 10 animals/group, for all groups receiving MPTP, 4 additional animals were added to mitigate study impacts if there were MPTP-induced fatalities).
MPTP Treatment. MPTP was formulated in phosphate buffered saline and administered to mice three times at a dose of 20 mg/kg (1 mg/mL delivered at 20 mL/kg) at two-hour intervals (final dose of MPTP=60 mg/kg).
Locomotor activity. One day prior (baseline) and on Day 7 after MPTP administration (Day (−1) and Day 7), mice were monitored for various aspects of locomotor function using a fully automated open-field apparatus (Med-Associates, Inc). The apparatus consisted of a 10.75″×10.75″ arena enclosed in a sound-attenuated box, equipped with the fan and house light. […]
Data analysis. Data were averaged and are expressed as the average±SEM.
Data were analyzed by one-way ANOVA followed by a post-hoc tests. p-values of less than 0.05 were considered to be statistically significant from control.

T1 sequence (P10636 561-685 limits assumed): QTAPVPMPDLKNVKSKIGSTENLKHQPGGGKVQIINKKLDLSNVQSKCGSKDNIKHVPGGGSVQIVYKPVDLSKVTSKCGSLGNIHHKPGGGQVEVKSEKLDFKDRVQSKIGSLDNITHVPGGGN

CCCCCCCC1=C(C)C(=O)C(C)=C(C)C1=O [Compound C7, 2,3,5-trimethyl-6-heptylcyclohexa-2,5-diene-1,4-dione]
inhibition of RSL3-induced αSynuclein aggregation [1]: did not demonstrate any inhibition | reduction in Tau fibril content [2]: did not have a significant reduction | inhibition of αSynuclein aggregation (normalized ThT fluorescence vs vehicle) [3]: not statistically significant

CN1CC=C(c2ccccc2)CC1 [MPTP, 1-methyl-4-phenyl-1,2,3,6-tetrahydropyridine, reference compound]
depletion of dopamine in the striatum [4]: ~74%
